Some test systems named below: SF-539 CNS; DU-145 prostate; SNB-19 CNS; UO-31 renal; SF-268 CNS; 786-0 renal; K-562 leukemia; OVCAR-8 ovarian; NCI-H522 lung; HOP-62 NSCLC.
Common to all, as to assay: NCI tumour cell line growth inhibition, 48 h

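Step 1: Grow cells in 96-well plates. Step 2: Expose to compound for 48 hours at 5 concentrations. Step 3: Interpolate endpoints linearly; if unreached, use highest concentration. GI50 marks 50% less growth. TGI denotes the concentration required for complete inhibition of growth.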

On to `CCOC(=O)c1c(NC(=O)c2ccc(Cl)cc2)sc2c(CN(C)C)c(O)ccc12`, for which the GI50 was 5.2 µM with SF-539 CNS; 13.2 µM in the assay on DU-145 prostate; 5.47 µM with SNB-19 CNS; 4.88 µM in the assay with UO-31 renal; 7.63 µM in the assay on SF-268 CNS; 5.54 µM in the assay with 786-0 renal. Besides, the GI50 in the assay on K-562 leukemia was 1.62 µM; with OVCAR-8 ovarian, 3.55 µM; in the assay with NCI-H522 lung, 21 µM; with HOP-62 NSCLC it was 5.58 µM. Moreover, the TGI in the assay with SF-539 CNS was 18.4 µM; in the assay with DU-145 prostate, 47.9 µM; in the assay on SNB-19 CNS, 24.8 µM; in the assay with UO-31 renal, 25.7 µM; in the assay on SF-268 CNS, 48.8 µM; in the assay on 786-0 renal it was 20.7 µM. Besides, the TGI is 5.07 µM with K-562 leukemia, 19.2 µM in the assay on OVCAR-8 ovarian, > 100 µM in the assay on NCI-H522 lung and 27.1 µM with HOP-62 NSCLC.
For the molecule `C=C1C[C@@H]2O[C@H]3[C@H]4[C@@H](CC[C@@](C)(OC(=O)CCC)[C@H]42)[C@@H](C)C(=O)O[C@@]3(C)CC[C@H]1OO`, the GI50 is 21 µM with SF-539 CNS; 18 µM in the assay on DU-145 prostate; 53.8 µM in the assay with SNB-19 CNS; 17.9 µM in the assay with UO-31 renal; 12.8 µM with SF-268 CNS; > 100 µM in the assay with 786-0 renal. In addition, the GI50 is 1.79 µM with K-562 leukemia, 22.6 µM in the assay on OVCAR-8 ovarian, 18.2 µM with NCI-H522 lung and 25.7 µM in the assay with HOP-62 NSCLC. The TGI with SF-539 CNS was 41.1 µM; in the assay on DU-145 prostate, 32.8 µM; with SNB-19 CNS it was > 100 µM; in the assay with UO-31 renal it was 33.7 µM; in the assay with SF-268 CNS, 26 µM; in the assay on 786-0 renal it was > 100 µM. Further, the TGI with K-562 leukemia was 3.28 µM; with OVCAR-8 ovarian, 51.6 µM; in the assay with NCI-H522 lung, 36.5 µM; in the assay on HOP-62 NSCLC, 55.3 µM.
With `COc1ccc2c(c1)C(=O)c1c-2c(OCCN(C)C)nc2cc(OC)c(OC)cc12`, the GI50 is 10.6 µM in the assay on SF-539 CNS; 2.93 µM with DU-145 prostate; 2.28 µM with SNB-19 CNS; 0.658 µM in the assay on UO-31 renal; 0.731 µM with SF-268 CNS; 13 µM in the assay with 786-0 renal. Also, the GI50 was 5.04 µM in the assay with K-562 leukemia, 1.62 µM in the assay with OVCAR-8 ovarian, 10.6 µM with NCI-H522 lung and 1.32 µM in the assay with HOP-62 NSCLC. For the same molecule, the TGI in the assay with SF-539 CNS came to 24.9 µM; with DU-145 prostate, 34.7 µM; in the assay on SNB-19 CNS, 31.5 µM; in the assay with UO-31 renal, 9.37 µM; in the assay on SF-268 CNS, 16.3 µM; with 786-0 renal it was 27.2 µM. Besides, the TGI was 30.9 µM in the assay on K-562 leukemia, > 100 µM in the assay with OVCAR-8 ovarian, > 100 µM in the assay with NCI-H522 lung and 32 µM in the assay with HOP-62 NSCLC.
For the molecule `O=c1cccc(Cl)[nH]1`, the TGI in the assay with SF-539 CNS, in the assay on DU-145 prostate, in the assay on SNB-19 CNS, in the assay with UO-31 renal, in the assay on SF-268 CNS and in the assay on 786-0 renal was > 100 µM in each case. For the same molecule, the TGI in the assay on K-562 leukemia, with OVCAR-8 ovarian, with NCI-H522 lung and with HOP-62 NSCLC was > 100 µM each time.
Take `CNC(=O)OCc1nc(SC)n(C)c1COC(=O)NC`: the TGI in the assay on SF-539 CNS turned out to be 299 µM; with DU-145 prostate it was 379 µM; in the assay with SNB-19 CNS it was 743 µM; with UO-31 renal, 444 µM; in the assay on SF-268 CNS it was 450 µM; in the assay with 786-0 renal it was 413 µM. Further, the TGI with K-562 leukemia was determined as 508 µM; with OVCAR-8 ovarian it was 472 µM; with NCI-H522 lung, 246 µM; in the assay on HOP-62 NSCLC, 92.2 µM.
On to `COc1ccccc1C(=O)N(Cc1ccccc1)c1ccc(Cl)c(C(=O)OC(C)C)c1`, for which the TGI in the assay on SF-539 CNS is > 100 µM; with DU-145 prostate, > 100 µM; in the assay with SNB-19 CNS it was > 100 µM; in the assay with UO-31 renal, 54.1 µM; with SF-268 CNS, > 100 µM; in the assay with 786-0 renal, > 100 µM. The TGI was > 100 µM in the assay on K-562 leukemia, > 100 µM in the assay with OVCAR-8 ovarian, 18.3 µM with NCI-H522 lung and 85.8 µM in the assay with HOP-62 NSCLC.
As to `Cc1ccc(OC(=O)N2C/C(=C\c3ccccc3)C(=O)/C(=C/c3ccccc3)C2)cc1`, the TGI is 66.2 µM in the assay on SF-539 CNS; > 100 µM with DU-145 prostate; > 100 µM with SNB-19 CNS; 85 µM with UO-31 renal; 98.5 µM in the assay with SF-268 CNS; 35.9 µM in the assay on 786-0 renal. Also, the TGI in the assay with K-562 leukemia is > 51.7 µM; in the assay on OVCAR-8 ovarian, 54.5 µM; in the assay on NCI-H522 lung, 33.8 µM; in the assay with HOP-62 NSCLC, 38.7 µM.
On to `CCOC1Oc2ccc(C)cc2C(=O)/C1=C\Nc1ccc(S(N)(=O)=O)cc1` (stereo not given), for which the GI50 with SF-539 CNS is 7.49 µM; in the assay on DU-145 prostate, 12.9 µM; in the assay on SNB-19 CNS, 16.1 µM; in the assay on UO-31 renal it was 13.7 µM; in the assay on SF-268 CNS it was 16.1 µM; with 786-0 renal it was 6.88 µM. The GI50 in the assay on K-562 leukemia is 15.2 µM; in the assay with OVCAR-8 ovarian it was 9.97 µM; in the assay with NCI-H522 lung, > 50 µM; in the assay with HOP-62 NSCLC, 11 µM. Besides, the TGI in the assay on SF-539 CNS was 24.2 µM; in the assay with DU-145 prostate it was 35.7 µM; in the assay with SNB-19 CNS, > 50 µM; in the assay with UO-31 renal, > 50 µM; in the assay with SF-268 CNS, > 50 µM; in the assay with 786-0 renal, 13.6 µM. The TGI in the assay on K-562 leukemia was > 50 µM; in the assay on OVCAR-8 ovarian, 27.7 µM; with NCI-H522 lung it was > 50 µM; in the assay on HOP-62 NSCLC, 35.1 µM.
Turning to `OCCN(CO)CO`, the TGI in the assay with SF-539 CNS, in the assay on DU-145 prostate, with SNB-19 CNS, in the assay on UO-31 renal, in the assay on SF-268 CNS and in the assay on 786-0 renal was > 100 µM throughout. Also, the TGI in the assay on K-562 leukemia, in the assay with OVCAR-8 ovarian, in the assay on NCI-H522 lung and in the assay on HOP-62 NSCLC was > 100 µM each time.
As for `CC1OC(OC2C(O)C(O)C(O)C(O)C2O)C(N)CC1N=C(N)C(=O)O` (stereo not given), the TGI in the assay on SF-539 CNS, in the assay with DU-145 prostate, in the assay on SNB-19 CNS, in the assay with UO-31 renal, in the assay on SF-268 CNS and in the assay with 786-0 renal was > 100 µM throughout. Moreover, the TGI in the assay on K-562 leukemia, in the assay with OVCAR-8 ovarian, in the assay with NCI-H522 lung and in the assay with HOP-62 NSCLC was > 100 µM in each case.

These data come from PubChem BioAssay (NCI).
